Reference: patent EP2914280B1, “SOMATOSTATIN-DOPAMINE CHIMERIC ANALOGS” (IPSEN PHARMA S.A.S., priority 2012, dated 2014)
Where two headings read alike, the source gives them in different places. Numbered stars: 1 amine (or outer) side, 2 acyl side, 3 side chain; on linkers, the order of the positions; unused ones are H or OH. Bridge positions count the residues as written; N and C are the ends. Square brackets hold non-standard residues; d marks the D form. Peptide text beside a SMILES is read from it. X1 = CN1C[C@H](CSCCN(CCSC[C@@H]2C[C@@H]3c4cccc5[nH]cc(c45)C[C@H]3N(C)C2)[C@H](CCCCN[*:2])C(=O)[*:1])C[C@@H]2c3cccc4[nH]cc(c34)C[C@H]21; 4Pal = N[C@@H](Cc1ccncc1)C(=O)O

Tests used:
hSSTR1 = biological target: T1, hSSTR1 (Homo sapiens, UniProt P30872); assay: Somatostatin receptor radioligand binding assay (hSSTR1)
T1 construct: expressed in transfected cells; host or cells: CHO-K1 (ATCC), pcDNA3.1, G418-selected clonal line; membranes
Procedure: (§1) The affinities of a test compound for the human somatostatin receptors were determined by radioligand binding assays in CHO-K1 cells stably transfected with each of the human somatostatin receptor subtypes, hSSTR1-5. […] Clonal cell lines stably expressing each of the somatostatin receptors were obtained by transfection into CHO-K1 cells (ATCC) and subsequently selected with culture media containing 0.8 mg/mL of G418 (Life Technologies).
(§2) Membranes for in vitro receptor binding assays were obtained by the following procedures. […] The supernatant containing the plasma membranes was centrifuged at 100,000 x g for 30 minutes and the pellet was resuspended in buffer containing 20 mM glycine-glycine, 1 mM MgCl2, 250 mM sucrose, pH 7.2, for storage at -80°C.
(§3) For the SSTR1, 2 and 5 assays, membranes and various concentrations of test compounds were incubated in 96-well plates for 60 minutes at 25°C with 0.05 nM [^125I-Tyr^11]-SRIF-14 (for hSSTR1; PerkinElmer Life Science), 0.05 nM [^125I-Tyr]-seglitide (for hSSTR2; PerkinElmer Life Science) or 0.05 nM [^125I-Tyr]-[DPhe-cyclo(Cys-Tyr-DTrp-Lys-Val-Cys)-Thr-NH2] (for hSSTR5; PerkinElmer Life Science) in 50 mM HEPES, 0.2% BSA, 0.1 mM MgCl2, pH 7.5.
(§4) The incubations were terminated by rapid filtration through GF/C glass microfiber filter plates (pre-wet with 0.3% polyethyleneimine and 0.1 % BSA) using a 96-well cell harvester (Brandel). Plates were washed six times with 1 mL/well aliquots of ice-cold buffer containing 50 mM Tris buffer, pH 7.7. Specific binding was defined as the total radioligand bound minus the bound in the presence of 1000 nM SRIF-14.

hSSTR2 [1] = biological target: T2, hSSTR2 (Homo sapiens, UniProt P30874); assay: Somatostatin receptor radioligand binding assay (hSSTR2);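 also: radioligand displacement on membranes of CHO-K1 cells stably transfected with human SSTR2, specific binding taken as total minus binding left with 1000 nM SRIF-14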
T2 construct: host or cells: 'Cells expressing hSSTR2'
Procedure: as §1, §2, §3, §4

hSSTR2 [2] = biological target: T2, hSSTR2; assay: Intracellular calcium mobilization assay (FLIPR Calcium 4), hSSTR2; format: cell-based;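 also: agonist activity measured in cells expressing hSSTR2, seeded in 384-well plates, loaded with Calcium 4 dye, read-out as rise in intracellular calcium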
Procedure: (§5) The ability of select compounds according to the present invention to activate hSSTR2 and hDRD2 was determined by the intracellular calcium mobilization assay using FLIPR Calcium 4 assay kit (Molecular Devices).
(§6) Cells expressing hSSTR2 or hDRD2 were plated in 384-well microplates in tissue culture media and incubated for 16-24 hours at 37°C in a humidified atmosphere with 5% CO2. Medium was replaced by loading buffer containing Hank's buffered saline, 20 mM HEPES, 2.5 mM probenecid and Calcium 4 dye, and the plates were incubated at 37°C for 60 minutes.

hDRD2 [3] = biological target: T3, hDRD2 (Homo sapiens, UniProt P14416); assay: cell-based; parameters: host or cells: 'Cells expressing hDRD2'; conditions: for Emax: read-out: hDRD2 %Emax ± SEM
Procedure: as §5, §6

hDRD2 [4] = biological target: T3, hDRD2; assay: biochemical; format: binding; parameters: expressed in transfected cells; host or cells: CHO-K1, pcDNA3.1/GS, zeocin-selected clonal line; membranes
[5] = CHO-K1 cell membranes, 0.05 nM [125I-Tyr11]-SRIF-14, 60 minutes at 25°C, read-out: hSSTR1 Ki (nM) ± SEM
[6] = CHO-K1 cell membranes, 0.05 nM [125I-Tyr]-seglitide, 60 minutes at 25°C, read-out: hSSTR2 Ki (nM) ± SEM
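For Emax in this document: agonist activity at human DRD2 in DRD2-expressing cells, read as intracellular calcium mobilization with a FLIPR Calcium 4 fluorescent dye.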

T1 sequence (P30872 whole entry): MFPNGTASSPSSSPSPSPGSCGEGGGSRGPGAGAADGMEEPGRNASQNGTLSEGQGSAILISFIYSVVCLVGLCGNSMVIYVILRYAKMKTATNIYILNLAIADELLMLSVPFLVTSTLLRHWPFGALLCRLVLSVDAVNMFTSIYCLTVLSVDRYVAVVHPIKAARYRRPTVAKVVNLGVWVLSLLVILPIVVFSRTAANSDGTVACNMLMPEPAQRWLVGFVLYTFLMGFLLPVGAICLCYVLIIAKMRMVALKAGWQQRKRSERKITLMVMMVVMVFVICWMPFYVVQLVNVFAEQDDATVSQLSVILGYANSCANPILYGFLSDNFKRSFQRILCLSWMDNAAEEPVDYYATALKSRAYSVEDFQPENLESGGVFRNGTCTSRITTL
T3 sequence (P14416 whole entry): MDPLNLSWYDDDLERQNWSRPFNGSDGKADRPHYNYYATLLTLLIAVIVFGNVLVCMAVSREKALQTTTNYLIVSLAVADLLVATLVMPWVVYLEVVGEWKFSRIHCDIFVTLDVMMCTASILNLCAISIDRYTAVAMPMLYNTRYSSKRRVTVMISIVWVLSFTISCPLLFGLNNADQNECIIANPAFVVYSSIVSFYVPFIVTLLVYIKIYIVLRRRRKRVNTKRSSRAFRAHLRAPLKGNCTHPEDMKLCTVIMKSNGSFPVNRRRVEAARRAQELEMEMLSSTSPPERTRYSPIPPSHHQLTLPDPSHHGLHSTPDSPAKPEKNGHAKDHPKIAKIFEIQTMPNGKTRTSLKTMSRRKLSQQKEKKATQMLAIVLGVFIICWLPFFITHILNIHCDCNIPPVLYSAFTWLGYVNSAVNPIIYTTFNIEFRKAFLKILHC
T2 sequence (P30874 whole entry): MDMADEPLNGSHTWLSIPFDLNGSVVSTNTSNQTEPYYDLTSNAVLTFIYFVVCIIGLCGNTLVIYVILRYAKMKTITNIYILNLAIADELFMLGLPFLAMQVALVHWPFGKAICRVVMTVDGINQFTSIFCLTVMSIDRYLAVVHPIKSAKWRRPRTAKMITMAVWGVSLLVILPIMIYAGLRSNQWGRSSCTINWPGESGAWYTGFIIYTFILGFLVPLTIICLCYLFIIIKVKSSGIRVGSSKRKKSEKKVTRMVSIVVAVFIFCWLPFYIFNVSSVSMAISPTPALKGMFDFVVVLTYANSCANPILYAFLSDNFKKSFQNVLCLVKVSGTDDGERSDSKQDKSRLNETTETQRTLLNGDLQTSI

Row | SMILES | Ki (hSSTR1) | Ki (hSSTR2 [1]) | EC50 (hSSTR2 [2]) | EC50 (hDRD2 [3]) | Emax (hDRD2 [3]) | Ki (hDRD2 [4]) | Ki (hSSTR1; [5]) | Ki (hSSTR2 [1]; [6]) | EC50 (hSSTR2 [2]; Table IV, cells expressing hSSTR2, read-out: hSSTR2 EC50 (nM) ± SEM) | improvement in EC50 over Reference Compound A (hSSTR2 [2]; p value (Student's t-test, one-tailed) < 0.05, receptor not named) | improvement in %Emax over Reference Compound C (hSSTR2 [2]; receptor not named) | Ki (hDRD2 [4]; CHO-K1 cell membranes, […] [3H]-spiperone, 60 minutes at 25°C, read-out: hDRD2 Ki (nM) ± SEM)
1 | C[C@@H](O)[C@@H]1NC(=O)[C@H](CCCCN)NC(=O)[C@@H](Cc2c[nH]c3ccccc23)NC(=O)[C@H](Cc2ccccc2)NC(=O)[C@H](Cc2ccccc2)NC(=O)[C@H](CCCNC(=N)N)NC(=O)[C@H](NCCSC[C@@H]2C[C@@H]3c4cccc5[nH]cc(c45)C[C@H]3N(C)C2)CCCCNC(=O)[C@H](Cc2ccccc2)NC1=O [Compound 26, Dop1-psi(CH2NH)-cyclo(DLys-Arg-Phe-Phe-DTrp-Lys-Thr-Phe)] | 59 nM | 2.23 ± 0.97 nM | 9.8 ± 1.4 nM | 34.1 ± 6.8 nM | 93.7 ± 7.2% | 309 ± 56.6 nM | – | – | – | – | – | –
2 | C[C@@H](O)[C@@H]1NC(=O)[C@H](CCCCN)NC(=O)[C@@H](Cc2c[nH]c3ccccc23)NC(=O)[C@H](Cc2ccncc2)NC(=O)[C@H](Cc2ccccc2)NC(=O)[C@H](CCCNC(=N)N)NC(=O)[C@H](N(CCSC[C@@H]2C[C@@H]3c4cccc5[nH]cc(c45)C[C@H]3N(C)C2)CCSC[C@@H]2C[C@@H]3c4cccc5[nH]cc(c45)C[C@H]3N(C)C2)CCCCNC(=O)[C@H](Cc2ccc(O)cc2)NC1=O [Compound 35, bis[Dop1-psi(CH2N)]-cyclo(DLys-Arg-Phe-4Pal-DTrp-Lys-Thr-Tyr)] (RF[4Pal][dW]KTY; linker N-C via X1) | – | – | – | 97.4 ± 21.1 nM | 103 ± 1.4% | 345 ± 40.4 nM | 99.7 nM | 0.17 ± 0.06 nM | 19.4 ± 6.2 nM | – | – | –
3 | C[C@@H](O)[C@@H]1NC(=O)[C@H](CCCCN)NC(=O)[C@@H](Cc2c[nH]c3ccccc23)NC(=O)[C@H](Cc2ccccc2)NC(=O)[C@H](Cc2ccccc2)NC(=O)[C@H](CCCNC(=N)N)NC(=O)[C@H](NCCCS(=O)(=O)C[C@@H]2C[C@@H]3c4cccc5[nH]cc(c45)C[C@H]3N(C)C2)CCCCNC(=O)[C@H](Cc2ccc(F)cc2)NC1=O [Compound 48, (D-6-methyl-8β-ergolinylmethyl)-sulfonylpropyl-cyclo(DLys-Arg-Phe-Phe-DTrp-Lys-Thr-4FPhe)] | – | 0.25 ± 0.1 nM | 23.6 ± 7.9 nM | 78.3 ± 15.2 nM | 76.5 ± 2.8% | 19.4 ± 2.8 nM | – | – | – | – | – | –
4 | CC(=O)N(CCCN(C(C)=O)[C@@H]1CCCCNC(=O)[C@H](Cc2ccc(F)cc2)NC(=O)[C@H]([C@@H](C)O)NC(=O)[C@H](CCCCN)NC(=O)[C@@H](Cc2c[nH]c3ccccc23)NC(=O)[C@H](Cc2ccccc2)NC(=O)[C@H](Cc2ccccc2)NC(=O)[C@H](CCCNC(=N)N)NC1=O)C[C@@H]1C[C@@H]2c3cccc4[nH]cc(c34)C[C@H]2N(C)C1 [Compound 28, 3-[N-acetyl-N-(D-6-methyl-8β-ergolinylmethyl)]-aminopropionyl-psi(CH2NAc)-cyclo(DLys-Arg-Phe-Phe-DTrp-Lys-Thr-4FPhe)] | – | 0.75 ± 0.27 nM | 11.8 ± 7.6 nM | 265 ± 104 nM | 56 ± 9.1% | 39.9 ± 10.4 nM | – | – | – | – | – | –
5 | C[C@@H](O)[C@@H]1NC(=O)[C@H](CCCCN)NC(=O)[C@@H](Cc2c[nH]c3ccccc23)NC(=O)[C@H](Cc2ccccc2)NC(=O)[C@H](Cc2ccccc2)NC(=O)[C@H](CCCNC(=N)N)NC(=O)[C@H](NCCSC[C@@H]2C[C@@H]3c4cccc5[nH]cc(c45)C[C@H]3N(C)C2)CCCCNC(=O)[C@H](Cc2ccc(F)c(F)c2)NC1=O [Compound 6A, Dop1-psi(CH2NH)-cyclo(DLys-Arg-Phe-Phe-DTrp-Lys-Thr-3,4FPhe)] | – | 0.35 nM | 15.7 ± 4.3 nM | 62.1 ± 16.4 nM | 91.5 ± 3% | 16.9 ± 0.2 nM | – | – | – | – | – | –
6 | C[C@@H](O)[C@@H]1NC(=O)[C@H](CCCCN)NC(=O)[C@@H](Cc2c[nH]c3ccccc23)NC(=O)[C@H](Cc2ccccc2)NC(=O)[C@H](Cc2ccccc2)NC(=O)[C@H](CCCNC(=N)N)NC(=O)[C@H](NCCCCC[C@@H]2C[C@@H]3c4cccc5[nH]cc(c45)C[C@H]3N(C)C2)CCCCNC(=O)[C@H](Cc2ccc(F)cc2)NC1=O [Compound 3, (D-6-methyl-8β-ergolinyl)-pentanoyl-psi(CH2NH)-cyclo(DLys-Arg-Phe-Phe-DTrp-Lys-Thr-4FPhe)] | – | 0.72 ± 0.17 nM | 137 ± 63.8 nM | 212 ± 85.6 nM | 84.1 ± 12.2% | 45.2 ± 4.9 nM | – | – | – | – | – | –
7 | C[C@@H](O)[C@@H]1NC(=O)[C@H](CCCCN)NC(=O)[C@@H](Cc2c[nH]c3ccccc23)NC(=O)[C@H](Cc2ccncc2)NC(=O)[C@H](Cc2ccccc2)NC(=O)[C@H](CCCNC(=N)N)NC(=O)[C@H](NCCSC[C@@H]2C[C@@H]3c4cccc5[nH]cc(c45)C[C@H]3N(C)C2)CCCCNC(=O)[C@H](Cc2ccccc2)NC1=O [Compound 23, Dop1-psi(CH2NH)-cyclo(DLys-Arg-Phe-4Pal-DTrp-Lys-Thr-Phe)] | – | 0.09 nM | 2.4 ± 0.1 nM | 34.2 ± 13.7 nM | 96.4 ± 5.3% | 328 ± 19.3 nM | – | – | – | statistically significant improvement in EC50 | – | –
8 | CC(=O)N(CCCNC[C@@H]1C[C@@H]2c3cccc4[nH]cc(c34)C[C@H]2N(C)C1)[C@@H]1CCCCNC(=O)[C@H](Cc2ccc(F)cc2)NC(=O)[C@H]([C@@H](C)O)NC(=O)[C@H](CCCCN)NC(=O)[C@@H](Cc2c[nH]c3ccccc23)NC(=O)[C@H](Cc2ccccc2)NC(=O)[C@H](Cc2ccccc2)NC(=O)[C@H](CCCNC(=N)N)NC1=O [Compound 22, 3-[N-(D-6-methyl-8β-ergolinylmethyl)]-aminopropionyl-psi(CH2NAc)-cyclo(DLys-Arg-Phe-Phe-DTrp-Lys-Thr-4FPhe)] | – | 0.35 ± 0.18 nM | 27.5 ± 6.7 nM | 513 ± 129 nM | 38.7 ± 8.8% | 200 ± 65 nM | – | – | – | – | – | –
9 | C[C@@H](O)[C@@H]1NC(=O)[C@H](CCCCN)NC(=O)[C@@H](Cc2c[nH]c3ccccc23)NC(=O)[C@H](Cc2ccncc2)NC(=O)[C@H](Cc2ccccc2)NC(=O)[C@H](CCCNC(=N)N)NC(=O)[C@H](NC[C@H](Cc2ccc(O)cc2)NC(=O)CS(=O)(=O)C[C@@H]2C[C@@H]3c4cccc5[nH]cc(c45)C[C@H]3N(C)C2)CCCCNC(=O)[C@H](Cc2ccccc2)NC1=O [Compound 21, Dop1(SO2)-Tyr-psi(CH2NH)-cyclo(DLys-Arg-Phe-4Pal-DTrp-Lys-Thr-Phe)] | – | 0.02 ± 0.01 nM | 0.9 ± 0.1 nM | 208 ± 26.8 nM | 92.1 ± 0.2% | > 1000 nM | – | – | – | – | – | –
10 | C[C@@H](O)[C@@H]1NC(=O)[C@H](CCCCN)NC(=O)[C@@H](Cc2c[nH]c3ccccc23)NC(=O)[C@H](Cc2ccccc2)NC(=O)[C@H](Cc2ccccc2)NC(=O)[C@H](CCCNC(=N)N)NC(=O)[C@H](NCCSC[C@@H]2C[C@@H]3c4cccc5[nH]cc(c45)C[C@H]3N(C)C2)CCCCNC(=O)[C@H](Cc2c(F)c(F)c(F)c(F)c2F)NC1=O [Compound 6E, Dop1-psi(CH2NH)-cyclo(DLys-Arg-Phe-Phe-DTrp-Lys-Thr-2,3,4,5,6FPhe)] | – | 5.48 ± 3.38 nM | 223 ± 13.7 nM | 480 ± 125 nM | 54.1 ± 20.6% | 40.4 ± 13.2 nM | – | – | – | – | – | –
11 | C[C@@H](O)[C@@H]1NC(=O)[C@H](CCCCN)NC(=O)[C@@H](Cc2c[nH]c3ccccc23)NC(=O)[C@H](Cc2ccccc2)NC(=O)[C@H](Cc2ccccc2)NC(=O)[C@H](CCCNC(=N)N)NC(=O)[C@H](NC[C@H](CCCCNC(=O)CSC[C@@H]2C[C@@H]3c4cccc5[nH]cc(c45)C[C@H]3N(C)C2)NC(=O)CSC[C@@H]2C[C@@H]3c4cccc5[nH]cc(c45)C[C@H]3N(C)C2)CCCCNC(=O)[C@H](Cc2ccc(F)cc2)NC1=O [Compound 47, Dop1-Lys(Dop1)-psi(CH2NH)-cyclo(DLys-Arg-Phe-Phe-DTrp-Lys-Thr-4FPhe)] | – | – | – | – | 92.5 ± 0.8% | – | 29 nM | 0.58 ± 0.27 nM | – | – | statistically significant improvement in %Emax | 84.2 ± 7.5 nM
12 | C[C@@H](O)[C@@H]1NC(=O)[C@H](CCCCN)NC(=O)[C@@H](Cc2c[nH]c3ccccc23)NC(=O)[C@H](Cc2ccccc2)NC(=O)[C@H](Cc2ccccc2)NC(=O)[C@H](CCCNC(=N)N)NC(=O)[C@H](NCCSC[C@@H]2C[C@@H]3c4cccc5[nH]cc(c45)C[C@H]3N(C)C2)CCCCNC(=O)[C@H](Cc2ccccc2F)NC1=O [Compound 6D, Dop1-psi(CH2NH)-cyclo(DLys-Arg-Phe-Phe-DTrp-Lys-Thr-2FPhe)] | – | 0.54 ± 0.12 nM | 25 ± 7.7 nM | 64.5 ± 20.5 nM | 101 ± 2.7% | 31.8 ± 11.8 nM | – | – | – | – | – | –
13 | C[C@@H](O)[C@@H]1NC(=O)[C@H](CCCCN)NC(=O)[C@@H](Cc2c[nH]c3ccccc23)NC(=O)[C@H](Cc2ccccc2)NC(=O)[C@H](Cc2ccccc2)NC(=O)[C@H](CCCNC(=N)N)NC(=O)[C@H](NC[C@H](Cc2ccc(O)cc2)NC(=O)CS(=O)(=O)C[C@@H]2C[C@@H]3c4cccc5[nH]cc(c45)C[C@H]3N(C)C2)CCCCNC(=O)[C@H](Cc2ccc(F)cc2)NC1=O [Compound 19, Dop1(SO2)-Tyr-psi(CH2NH)-cyclo(DLys-Arg-Phe-Phe-DTrp-Lys-Thr-4FPhe)] | – | 0.16 ± 0.12 nM | 4.3 ± 1.2 nM | 701 ± 220 nM | 90.7 ± 5.7% | > 1000 nM | – | – | – | – | – | –
